# From ChEMBL document CHEMBL1671668, “Is the recommended dose of efavirenz optimal in young West African human immunodeficiency virus-infected children?” (Antimicrob Agents Chemother, 2009)
# Assays:
# [1] = system: Human immunodeficiency virus 1; test: Antiviral activity against HIV1 infected in children assessed as decrease in viral burden at 14.4 mg/kg once daily measured after 3 months; type: functional
# [2] = Apparent oral clearance in HIV-1 infected children at 12 mg/kg, po administered once daily by HPLC; type: ADME, organism-based; design: dose 12 mg/kg, route oral; conditions: human, in vivo
# [3] = Cmax in HIV-1 infected children at 10 to 15 mg/kg, po administered once daily by HPLC; type: ADME, organism-based; design: dose 10-15 mg/kg, route oral; conditions: human, in vivo
# [4] = system: Homo sapiens; test: AUC (0 to t) in HIV-1 infected children at 12 mg/kg, po administered once daily by HPLC; type: ADME, organism-based, Plasma; design: dose 12 mg/kg, route oral; conditions: in vivo
# [5] = Cmax in HIV-1 infected children at 12 mg/kg, po administered once daily by HPLC; type: ADME, organism-based; design: dose 12 mg/kg, route oral; conditions: human, in vivo
# [6] = Cmax in HIV-1 infected children at 14.4 mg/kg, po administered once daily by HPLC; type: ADME, organism-based; design: dose 14.4 mg/kg, route oral; conditions: human, in vivo
# [7] = Apparent oral clearance in HIV-1 infected children at 14.4 mg/kg, po administered once daily by HPLC; type: ADME, organism-based; design: dose 14.4 mg/kg, route oral; conditions: human, in vivo
# [8] = system: Homo sapiens; test: AUC (0 to t) in HIV-1 infected children at 10 to 15 mg/kg, po administered once daily by HPLC; type: ADME, organism-based, Plasma; design: dose 10-15 mg/kg, route oral; conditions: in vivo
# [9] = system: Homo sapiens; test: AUC (0 to t) in HIV-1 infected children at 14.4 mg/kg, po administered once daily by HPLC; type: ADME, organism-based, Plasma; design: dose 14.4 mg/kg, route oral; conditions: in vivo
# [10] = Apparent oral clearance in HIV-1 infected children at 13.3 mg/kg, po administered once daily by HPLC; type: ADME, organism-based; design: dose 13.3 mg/kg, route oral; conditions: human, in vivo
compound,measurement,setting,value
O=C1Nc2ccc(Cl)cc2[C@@](C#CC2CC2)(C(F)(F)F)O1 [EFAVIRENZ],fold change (FC),[1],2.5
same,CL/F,[2],3.17 mL/min/kg
same,Cmax,[3],5520 ng/mL
same,AUC,[4],60000 ng·h/mL
same,Cmax,[5],4090 ng/mL
same,Cmax,[6],3710 ng/mL
same,CL/F,[7],3.5 mL/min/kg
same,AUC,[8],63600 ng·h/mL
same,AUC,[9],65200 ng·h/mL
same,CL/F,[10],5 mL/min/kg
